Assay results published in US4385047A, “Antiallergic imidodisulfamides” (SmithKline Beckman Corporation, priority 1981, dated 1983).

System: partially purified slow reacting substance of anaphylaxis (SRS-A) obtained from guinea pig lung
Experiment: Inhibition of SRS-A induced contraction of guinea pig ileum
Details: compound concentration 5×10^-6 M, agonist SRS-A 40 μg/ml, 15 min, 5 µM
Protocol: The SRS-A antagonist activity of the compounds of this invention is measured by the ability of the active medicament to inhibit SRS-A induced contraction of guinea pig ileum. In this test system, sections of ileum are resected from guinea pigs and placed in 5 ml. tissue baths containing a modified Tyrode's solution. One end of the tissue is fixed to a glass tissue holder, the other is connected to a force-displacement transducer and the tissue is placed under a tension of 500 mg. Isometric tissue contractions are recorded on a six channel polygraph. Baths are constantly aerated with 95% O2 -5% CO2. After a 20 minute stabilization period a concentration of the appropriate agonist which provides a contraction height of 60-80% of the maximum obtainable to that agonist (as determined from full sequential concentration--response curves in separate experiments) is added to the tissue bath and the response recorded. The procedure is repeated until reproducible responses are obtained. […] Percent inhibition produced by the test compound is calculated by subtracting the mean percentage change in control tissue from the mean percentage change in tissues exposed to the test compound. Additional compounds are then evaluated as long as the tissue remains reproducibly responsive to the agonist. […]

## O=C(CS(=O)(=O)c1ccc2c(c1)CN(S(=O)(=O)NS(=O)(=O)N1CCc3ccc(S(=O)(=O)CC(=O)c4ccc(Cl)cc4)cc3C1)CC2)c1ccc(Cl)cc1 [Compound 1, N,N'-bis[7-(4-chlorobenzoylmethylsulfonyl)-1,2,3,4-tetrahydroisoquinolyl]disulfonylimide]
  percent antagonism of SRS-A induced contraction: 60%
